Assay results: patent publication US10738056B2 (Aduro BioTech, Inc., priority 2017, dated 2020)

Experiments:
[1] = target: Human cGAS amino acids 155-522 (Homo sapiens (Human), UniProt Q8N884); test: cGAS biochemical activity assay (ATP remaining, Kinase-Glo Max luminescence); conditions: human cGAS 155-522, ATP remaining (Kinase-Glo Max); read-out: cGAS IC50
[2] = tested on: cGAS/STING pathway in THP1 cells; test: THP1 cell-based cGAS/STING pathway activity assay (IRF-3-linked luciferase reporter); conditions: Homo sapiens, THP-1
Text: A cellular assay can be used to assess the compounds of the invention for their ability to inhibit the cGAS/STING pathway. Cells that express a luciferase-based reporter that is linked to IRF-3 activation are used to determine response as a function of compound concentration. Such an assay is described in Vincent et al., Nature Communications 2017, 8(1):750, doi: 10.1038/s41467-017-00833-9.
A cellular assay can be used to assess the compounds of the invention for their ability to inhibit the cGAS/STING pathway. Cells that express a luciferase-based reporter that is linked to IRF-3 activation are used to determine response as a function of compound concentration. Such an assay is described in Vincent et al., Nature Communications 2017, 8(1):750, doi: 10.1038/s41467-017-00833-9. Compounds of the invention were assessed using similar assay methods in a THP1 cell assay to generate IC50 values as provided in the following Table 16. In this table, activity level “A” indicates an IC50 value less than 20 μM, “B” indicates an IC50 value between 20 and 100 μM, and “C” indicates an IC50 value above the upper limit of the assay (100 μM), or where an IC50 value could not be generated from the data.

Sequence of Human cGAS amino acids 155-522 (Q8N884 157-522): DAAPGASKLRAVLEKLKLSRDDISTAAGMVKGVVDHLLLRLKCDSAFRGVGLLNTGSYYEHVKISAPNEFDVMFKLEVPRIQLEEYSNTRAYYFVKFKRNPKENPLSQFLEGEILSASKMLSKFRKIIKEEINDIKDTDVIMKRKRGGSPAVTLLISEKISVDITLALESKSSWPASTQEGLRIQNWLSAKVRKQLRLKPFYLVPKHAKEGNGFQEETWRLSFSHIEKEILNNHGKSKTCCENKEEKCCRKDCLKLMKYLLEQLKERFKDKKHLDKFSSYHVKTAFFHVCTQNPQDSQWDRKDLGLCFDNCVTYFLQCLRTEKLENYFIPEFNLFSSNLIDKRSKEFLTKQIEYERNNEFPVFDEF

SMILES: COc1cccc2oc(-c3c(COCC(=O)O)[nH]c4c(-c5ccccc5)c(C(F)(F)F)nn4c3=O)nc12 [Compound C1146, 2-((6-(4-methoxybenzo[d]oxazol-2-yl)-7-oxo-3-phenyl-2-(trifluoromethyl)-4,7-dihydropyrazolo[1,5-a]pyrimidin-5-yl)methoxy)acetic acid]
- IC50 [1]: < 20 µM
- IC50 [2]: > 100 µM

SMILES: Cc1[nH]c2c(-c3ccccc3)c(C(F)(F)F)nn2c(=O)c1-c1nc2c(C)cccc2o1 [Compound C1060, 5-methyl-6-(4-methylbenzo[d]oxazol-2-yl)-3-phenyl-2-(trifluoromethyl)pyrazolo[1,5-a]pyrimidin-7(4H)-one]
- IC50 [1]: < 20 µM
- IC50 [2]: < 20 µM

SMILES: COc1cccc2oc(-c3c(Cn4ccnc4)[nH]c4c(-c5ccccc5)c(C(F)(F)F)nn4c3=O)nc12 [Compound C1180, 5-((1H-imidazol-1-yl)methyl)-6-(4-methoxybenzo[d]oxazol-2-yl)-3-phenyl-2-(trifluoromethyl)pyrazolo[1,5-a]pyrimidin-7(4H)-one]
- IC50 [1]: < 20 µM
- IC50 [2]: > 100 µM

SMILES: COc1[nH]c2c(-c3ccccc3)c(C(F)(F)F)nn2c(=O)c1-c1nc2c(OC)cccc2o1 [Compound C1084, 5-methoxy-6-(4-methoxybenzo[d]oxazol-2-yl)-3-phenyl-2-(trifluoromethyl)pyrazolo[1,5-a]pyrimidin-7(4H)-one]
- IC50 [1]: < 20 µM
- IC50 [2]: < 20 µM

SMILES: Cc1[nH]c2c(-c3ccccc3)c(C(F)(F)F)nn2c(=O)c1C(=O)Nc1ccn(C)n1 [Compound A1029, 5-methyl-N-(1-methyl-1H-pyrazol-3-yl)-7-oxo-3-phenyl-2-(trifluoromethyl)-4,7-dihydropyrazolo[1,5-a]pyrimidine-6-carboxamide]
- IC50 [1]: < 20 µM
- IC50 [2]: 20 to 100 µM

SMILES: COc1ccc(NC(=O)c2c(C)[nH]c3c(-c4ccccc4)c(C(F)(F)F)nn3c2=O)nn1 [Compound A1110, N-(6-methoxypyridazin-3-yl)-5-methyl-7-oxo-3-phenyl-2-(trifluoromethyl)-4,7-dihydropyrazolo[1,5-a]pyrimidine-6-carboxamide]
- IC50 [1]: < 20 µM
- IC50 [2]: > 100 µM

SMILES: Cc1[nH]c2c(-c3ccccc3)c(C(F)(F)F)nn2c(=O)c1-c1nnc(-c2ccnc(O)c2)o1 [Compound D1085, 6-(5-(2-hydroxypyridin-4-yl)-1,3,4-oxadiazol-2-yl)-5-methyl-3-phenyl-2-(trifluoromethyl)pyrazolo[1,5-a]pyrimidin-7(4H)-one]
- IC50 [1]: < 20 µM
- IC50 [2]: > 100 µM

SMILES: COc1cccc2oc(-c3c(C(=O)O)[nH]c4c(-c5ccccc5)c(C#N)nn4c3=O)nc12 [Compound C1249, 2-cyano-6-(4-methoxybenzo[d]oxazol-2-yl)-7-oxo-3-phenyl-4,7-dihydropyrazolo[1,5-a]pyrimidine-5-carboxylic acid]
- IC50 [1]: < 20 µM
- IC50 [2]: > 100 µM

SMILES: Cc1[nH]c2c(-c3ccccc3)c(C(F)(F)F)nn2c(=O)c1-c1nnc(C2CCCO2)o1 (stereo not shown) [Compound D1012, 5-methyl-3-phenyl-6-(5-(tetrahydrofuran-2-yl)-1,3,4-oxadiazol-2-yl)-2-(trifluoromethyl)pyrazolo[1,5-a]pyrimidin-7(4H)-one]
- IC50 [1]: < 20 µM
- IC50 [2]: > 100 µM

SMILES: COCc1coc(-c2c(C)[nH]c3c(-c4ccccc4)c(C(F)(F)F)nn3c2=O)n1 [Compound C1108, 6-(4-(methoxymethyl)oxazol-2-yl)-5-methyl-3-phenyl-2-(trifluoromethyl)pyrazolo[1,5-a]pyrimidin-7(4H)-one]
- IC50 [1]: < 20 µM
- IC50 [2]: > 100 µM

SMILES: Cc1[nH]c2c(-c3ccccc3)c(C(F)(F)F)nn2c(=O)c1C(=O)Nc1cccc(N)c1 [Compound A1069, N-(3-aminophenyl)-5-methyl-7-oxo-3-phenyl-2-(trifluoromethyl)-4,7-dihydropyrazolo[1,5-a]pyrimidine-6-carboxamide]
- IC50 [1]: < 20 µM
- IC50 [2]: 20 to 100 µM

SMILES: Cc1[nH]c2c(-c3ccccc3)c(C(F)(F)F)nn2c(=O)c1-c1nc2c([S+](C)[O-])cccc2o1 (stereo not shown) [Compound C1097, 5-methyl-6-(4-(methylsulfinyl)benzo[d]oxazol-2-yl)-3-phenyl-2-(trifluoromethyl)pyrazolo[1,5-a]pyrimidin-7(4H)-one]
- IC50 [1]: < 20 µM
- IC50 [2]: > 100 µM

SMILES: Cc1[nH]c2c(-c3ccccc3)c(C(F)(F)F)nn2c(=O)c1-c1nc2c(=O)[nH]ccc2o1 [Compound C1116, 2-(5-methyl-7-oxo-3-phenyl-2-(trifluoromethyl)-4,7-dihydropyrazolo[1,5-a]pyrimidin-6-yl)oxazolo[4,5-c]pyridin-4(5H)-one]
- IC50 [1]: < 20 µM
- IC50 [2]: > 100 µM

SMILES: COc1cccc2oc(-c3c(-c4conc4C)[nH]c4c(-c5ccccc5)c(C(F)(F)F)nn4c3=O)nc12 [Compound C1253, 6-(4-methoxybenzo[d]oxazol-2-yl)-5-(3-methylisoxazol-4-yl)-3-phenyl-2-(trifluoromethyl)pyrazolo[1,5-a]pyrimidin-7(4H)-one]
- IC50 [1]: < 20 µM
- IC50 [2]: 20 to 100 µM

SMILES: CC(=O)Nc1cccc2nc(-c3c(C)[nH]c4c(-c5ccccc5)c(C(F)(F)F)nn4c3=O)[nH]c12 [Compound C1009, N-(2-(5-methyl-7-oxo-3-phenyl-2-(trifluoromethyl)-4,7-dihydropyrazolo[1,5-a]pyrimidin-6-yl)-1H-benzo[d]imidazol-7-yl)acetamide]
- IC50 [1]: < 20 µM
- IC50 [2]: 20 to 100 µM

SMILES: Cc1[nH]c2c(-c3ccccc3)c(C#N)nn2c(=O)c1-c1nc2cnccc2o1 [Compound C1275, 5-methyl-6-(oxazolo[4,5-c]pyridin-2-yl)-7-oxo-3-phenyl-4,7-dihydropyrazolo[1,5-a]pyrimidine-2-carbonitrile]
- IC50 [1]: < 20 µM
- IC50 [2]: > 100 µM

SMILES: COCc1[nH]c2c(-c3ccccc3)c(C#N)nn2c(=O)c1-c1nc2c(OC)nc(N)cc2o1 [Compound C1227, 6-(6-amino-4-methoxyoxazolo[4,5-c]pyridin-2-yl)-5-(methoxymethyl)-7-oxo-3-phenyl-4,7-dihydropyrazolo[1,5-a]pyrimidine-2-carbonitrile]
- IC50 [1]: < 20 µM
- IC50 [2]: > 100 µM

SMILES: Cc1nc(NC(=O)c2c(C)[nH]c3c(-c4ccccc4)c(C(F)(F)F)nn3c2=O)oc1C [Compound A1056, N-(4,5-dimethyloxazol-2-yl)-5-methyl-7-oxo-3-phenyl-2-(trifluoromethyl)-4,7-dihydropyrazolo[1,5-a]pyrimidine-6-carboxamide]
- IC50 [1]: < 20 µM
- IC50 [2]: 20 to 100 µM

SMILES: COc1cccc2oc(-c3c(-c4cnn(C)c4)[nH]c4c(-c5ccccc5)c(C(F)(F)F)nn4c3=O)nc12 [Compound C1255, 6-(4-methoxybenzo[d]oxazol-2-yl)-5-(1-methyl-1H-pyrazol-4-yl)-3-phenyl-2-(trifluoromethyl)pyrazolo[1,5-a]pyrimidin-7(4H)-one]
- IC50 [1]: < 20 µM
- IC50 [2]: > 100 µM

SMILES: COCCn1ccc(NC(=O)c2c(C)[nH]c3c(-c4ccccc4)c(C(F)(F)F)nn3c2=O)n1 [Compound A1115, N-(1-(2-methoxyethyl)-1H-pyrazol-3-yl)-5-methyl-7-oxo-3-phenyl-2-(trifluoromethyl)-4,7-dihydropyrazolo[1,5-a]pyrimidine-6-carboxamide]
- IC50 [1]: 20 to 250 µM
- IC50 [2]: > 100 µM

SMILES: COc1c(Cl)ccc2oc(-c3c(C)[nH]c4c(-c5ccccc5)c(C(F)(F)F)nn4c3=O)nc12 [Compound C1095, 6-(5-chloro-4-methoxybenzo[d]oxazol-2-yl)-5-methyl-3-phenyl-2-(trifluoromethyl)pyrazolo[1,5-a]pyrimidin-7(4H)-one]
- IC50 [1]: < 20 µM
- IC50 [2]: > 100 µM

SMILES: COc1ccc2[nH]c(-c3c(C)[nH]c4c(-c5ccccc5)c(C(F)(F)F)nn4c3=O)nc2c1 [Compound C1016, 6-(5-methoxy-1H-benzo[d]imidazol-2-yl)-5-methyl-3-phenyl-2-(trifluoromethyl)pyrazolo[1,5-a]pyrimidin-7(4H)-one]
- IC50 [1]: < 20 µM
- IC50 [2]: < 20 µM

SMILES: Cc1[nH]c2c(-c3ccccc3)c(C(F)(F)F)nn2c(=O)c1-c1nc2c(Br)cccc2o1 [Compound C1040, 6-(4-bromobenzo[d]oxazol-2-yl)-5-methyl-3-phenyl-2-(trifluoromethyl)pyrazolo[1,5-a]pyrimidin-7(4H)-one]
- IC50 [1]: < 20 µM
- IC50 [2]: < 20 µM

SMILES: COc1cccc2oc(-c3c(C)[nH]c4c(-c5ccccc5)c(C)nn4c3=O)nc12 [Compound C1042, 6-(4-methoxybenzo[d]oxazol-2-yl)-2,5-dimethyl-3-phenylpyrazolo[1,5-a]pyrimidin-7(4H)-one]
- IC50 [1]: < 20 µM
- IC50 [2]: < 20 µM

SMILES: COc1nn2c(=O)c(-c3nc4c(OC)cccc4o3)c(C)[nH]c2c1-c1ccccc1 [Compound C1064, 2-methoxy-6-(4-methoxybenzo[d]oxazol-2-yl)-5-methyl-3-phenylpyrazolo[1,5-a]pyrimidin-7(4H)-one]
- IC50 [1]: 20 to 250 µM
- IC50 [2]: < 20 µM

SMILES: COc1cccc2oc(-c3c(C(=O)NCCO)[nH]c4c(-c5ccccc5)c(C(F)(F)F)nn4c3=O)nc12 [Compound C1178, N-(2-hydroxyethyl)-6-(4-methoxybenzo[d]oxazol-2-yl)-7-oxo-3-phenyl-2-(trifluoromethyl)-4,7-dihydropyrazolo[1,5-a]pyrimidine-5-carboxamide]
- IC50 [1]: < 20 µM
- IC50 [2]: < 20 µM
